Assay results taken from patent US20180244611A1, “Modulators of the Cystic Fibrosis Transmembrane Conductance Regulator Protein and Methods of Use” (AbbVie S.à.r.l., priority 2017, published 2018).

Experiments:
F508delCFTR [1] = molecular target: T1, F508delCFTR (Homo sapiens, UniProt P13569, DEL508-508); assay: Cell Surface Expression-Horse Radish Peroxidase (CSE-HRP) assay, test compound without co-corrector; type: cell-based; details: for EC50: test compound without co-corrector; for Emax / Maximum % activity (without co-corrector): maximum at any tested concentration, without co-corrector; for Emax: normalized to on-plate positive control; for Maximum % activity (without co-corrector): normalized to positive control;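 for Maximum % activity (without co-corrector): percent of on-plate 2 µM positive control corrector response over DMSO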
T1 construct: expressed in transfected cells; host or cells: CFBE41o- human lung-derived epithelial cells (CFBE41o-F508delCFTR-HRP), doxycycline-inducible
T1 sequence (P13569 with tags, fused parts or gaps DEL508-508): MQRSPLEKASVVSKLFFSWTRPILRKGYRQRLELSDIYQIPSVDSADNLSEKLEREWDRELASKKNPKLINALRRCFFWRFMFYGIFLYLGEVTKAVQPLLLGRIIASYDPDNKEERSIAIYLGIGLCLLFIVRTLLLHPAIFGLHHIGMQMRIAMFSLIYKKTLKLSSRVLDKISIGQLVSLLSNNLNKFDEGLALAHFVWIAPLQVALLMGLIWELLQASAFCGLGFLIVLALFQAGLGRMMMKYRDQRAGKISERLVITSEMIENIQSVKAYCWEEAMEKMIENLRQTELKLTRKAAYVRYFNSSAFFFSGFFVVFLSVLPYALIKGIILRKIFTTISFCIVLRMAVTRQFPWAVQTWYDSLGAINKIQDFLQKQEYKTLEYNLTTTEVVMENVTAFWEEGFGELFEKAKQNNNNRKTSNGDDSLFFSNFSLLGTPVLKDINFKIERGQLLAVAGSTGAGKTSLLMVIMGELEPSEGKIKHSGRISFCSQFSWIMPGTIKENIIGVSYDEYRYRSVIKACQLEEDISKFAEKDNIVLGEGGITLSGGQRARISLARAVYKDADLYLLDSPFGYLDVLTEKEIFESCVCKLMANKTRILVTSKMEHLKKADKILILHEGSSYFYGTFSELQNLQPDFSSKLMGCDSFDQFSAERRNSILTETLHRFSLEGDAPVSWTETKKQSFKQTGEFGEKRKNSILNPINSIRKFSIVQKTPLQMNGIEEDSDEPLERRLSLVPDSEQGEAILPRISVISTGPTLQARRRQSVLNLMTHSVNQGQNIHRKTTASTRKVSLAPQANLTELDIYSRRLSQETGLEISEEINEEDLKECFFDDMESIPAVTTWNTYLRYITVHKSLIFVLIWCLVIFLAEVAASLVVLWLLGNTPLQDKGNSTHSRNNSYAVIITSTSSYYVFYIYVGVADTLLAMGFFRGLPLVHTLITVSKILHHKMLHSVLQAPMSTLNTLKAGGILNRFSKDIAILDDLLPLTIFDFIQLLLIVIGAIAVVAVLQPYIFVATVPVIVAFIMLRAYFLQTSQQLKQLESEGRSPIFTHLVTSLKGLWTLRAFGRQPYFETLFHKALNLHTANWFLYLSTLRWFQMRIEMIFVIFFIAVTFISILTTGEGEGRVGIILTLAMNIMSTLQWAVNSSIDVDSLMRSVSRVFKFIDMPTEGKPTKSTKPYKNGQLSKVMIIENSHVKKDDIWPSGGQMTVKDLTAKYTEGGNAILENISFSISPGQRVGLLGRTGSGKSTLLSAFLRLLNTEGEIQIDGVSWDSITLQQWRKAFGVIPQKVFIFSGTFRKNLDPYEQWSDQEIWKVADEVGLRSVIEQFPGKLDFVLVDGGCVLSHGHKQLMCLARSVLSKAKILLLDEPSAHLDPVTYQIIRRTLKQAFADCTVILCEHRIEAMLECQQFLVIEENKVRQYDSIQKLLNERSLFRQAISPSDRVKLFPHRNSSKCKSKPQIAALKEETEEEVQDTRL
Procedure, shortened: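 CFBE41o- cells expressing F508delCFTR with HRP in the fourth exofacial loop, induced with 0.5 μg/mL doxycycline for 72 h at 37° C, then exposed to compound alone for 18-24 h at 33° C, 8-point 3-fold series from 20 μM. Surface HRP read by luminol luminescence, normalized to positive corrector control versus DMSO; EC50 from variable-slope sigmoidal fit of three replicate plates.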

F508delCFTR [2] = molecular target: T1, F508delCFTR; assay: Cell Surface Expression-Horse Radish Peroxidase (CSE-HRP) assay, test compound with co-corrector; type: cell-based; details: for Maximum % activity (with co-corrector): maximum at any tested concentration;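 for Maximum % activity (with co-corrector): percent of 2 µM positive control corrector over DMSO; co-corrector is that same compound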
Procedure, shortened: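 CFBE41o- cells expressing F508delCFTR with HRP in the fourth exofacial loop, induced with 0.5 μg/mL doxycycline for 72 h, then treated 18-24 h at 33° C. with compound (8 points, top 20 μM, 3-fold) plus 2 μM co-corrector. Surface HRP read by luminol luminescence; activity normalised to positive control, EC50 from variable-slope sigmoidal fit.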

[3] = CSE-HRP assay, test compound with 2 μM co-corrector
[4] = normalized to on-plate positive control, with 2 μM co-corrector
[5] = normalized to positive control, with 2 μM co-corrector

EC50 (F508delCFTR [1]; CSE-HRP assay) | Emax (F508delCFTR [1]) | EC50 (F508delCFTR [2]; [3]) | Maximum % activity (with co-corrector) (F508delCFTR [2]; [4]) | Molecule | Maximum % activity (without co-corrector) (F508delCFTR [1]) | EC50 (F508delCFTR [1]) | Maximum % activity (with co-corrector) (F508delCFTR [2]; [5]) | EC50 (F508delCFTR [2]; with 2 μM co-corrector)
≥ 10 µM | < 50% | ≥ 10 µM | + (<150) | COc1ccc(C(=O)N(C)C)c2c1C(C(=O)NS(=O)(=O)c1cccc3ccccc13)CC2 (stereo not shown) [III-187] | – | – | – | –
≥ 10 µM | < 50% | 3 to 10 µM | + (<150) | COc1ccc(CN2CCCC2)c2c1C(C(=O)NS(=O)(=O)c1cccc3ccccc13)CC2 (stereo not shown) [III-188] | – | – | – | –
– | – | – | – | (1R)-4-cyclobutyl-7-methoxy-N-(1,2,3,4-tetrahydroquinoline-8-sulfonyl)-2,3-dihydro-1H-indene-1-carboxamide [Example I-131] | +++ (≥150) | < 3 µM | +++ (≥350) | < 3 µM
– | – | – | – | (1S)-7-chloro-1-methyl-N-(naphthalene-1-sulfonyl)-2,3-dihydro-1H-indene-1-carboxamide [Example I-26] | ++ (≥50 and <150) | < 3 µM | +++ (≥350) | < 3 µM
